US8168199B2, “Dipeptidyl peptidase IV inhibitors for the treatment of schizophrenia and depression” (priority 2000, dated 2012)

Tested on: Male WistarF/Han (WF) rats
Experiment: 1 h food-intake with Y1R antagonist BIBP3226, P32/98 and NPY (Example 4)
Format: in vivo, rat
Conditions: i.c.v. 50 nmol
Experimental: Animals. Male WistarF/Han (WF) rats (Central Animal Laboratory, Hannover Medical School, Hannover, Germany, weighing 330±31 g±SD, were housed in a sound-proof, temperature controlled (24.0±0.5° C.) room under specific pathogen free conditions with a 12/12 h dark/light cycle (lights on at 07.00 with illumination level of 80 Lux). Food (Altromin lab chow pellets) and tap water were available ad libitum. Under ketamine/xylasine (100/5 mg/kg, i.p.) anesthesia, the rats were fixed in a Kopf stereotaxic frame and implanted with cannulae (Plastic One, Inc., Roanoke, Va., USA) above the lateral ventricle. All research and animal care procedures were approved by the Lower Saxony district government (Hannover, Germany) and followed principles described in the European Community's Council Directive of 24 Nov. 1986 (86/609/EEC).
Surgery and i.c.v. application. […]
Animals were randomly divided into eight experimental groups (n=6-8/group), which completed one SI test of anxiety: (1) aCSF+aCSF+aCSF; (2) BIBP+aCSF+aCSF; (3) aCSF+P32/98+aCSF; (4) BIBP+P32/98+aCSF; (5) aCSF+aCSF+NPY; (6) BIBP+aCSF+NPY; (7) aCSF+[…]+NPY; (8) BIBP+P32/98+NPY. […] The time spent in active social interaction (SI-time), 1 h, and 12 h food-intake were measured. […]
Statistical analysis. Data obtained from the measures SI time and 1 h food intake were analyzed by one-way (factor: “treatment”) ANOVA. […]

CC[C@H](C)[C@H](N)C(=O)N1CCSC1 [P32/98]
1 h food-intake, P32/98 alone: non-significant slight increase of feeding
